Consider 19 molecules from ChEMBL document CHEMBL1909545, “Synthesis, biological assay in vitro and molecular docking studies of new Schiff base derivatives as potential urease inhibitors” (Eur J Med Chem, 2011).

The target in one test is Urease (Canavalia ensiformis, UniProt P07374). The test is described as follows: Inhibition of jack bean urease assessed as ammonia production after 30 mins by indophenol method.
For test [1], the target named is Urease (Canavalia ensiformis) (UniProt P07374). The settings on record: 0.01 to 0.001 uM.
Chain of Urease (Canavalia ensiformis) (P07374 whole entry, looked up): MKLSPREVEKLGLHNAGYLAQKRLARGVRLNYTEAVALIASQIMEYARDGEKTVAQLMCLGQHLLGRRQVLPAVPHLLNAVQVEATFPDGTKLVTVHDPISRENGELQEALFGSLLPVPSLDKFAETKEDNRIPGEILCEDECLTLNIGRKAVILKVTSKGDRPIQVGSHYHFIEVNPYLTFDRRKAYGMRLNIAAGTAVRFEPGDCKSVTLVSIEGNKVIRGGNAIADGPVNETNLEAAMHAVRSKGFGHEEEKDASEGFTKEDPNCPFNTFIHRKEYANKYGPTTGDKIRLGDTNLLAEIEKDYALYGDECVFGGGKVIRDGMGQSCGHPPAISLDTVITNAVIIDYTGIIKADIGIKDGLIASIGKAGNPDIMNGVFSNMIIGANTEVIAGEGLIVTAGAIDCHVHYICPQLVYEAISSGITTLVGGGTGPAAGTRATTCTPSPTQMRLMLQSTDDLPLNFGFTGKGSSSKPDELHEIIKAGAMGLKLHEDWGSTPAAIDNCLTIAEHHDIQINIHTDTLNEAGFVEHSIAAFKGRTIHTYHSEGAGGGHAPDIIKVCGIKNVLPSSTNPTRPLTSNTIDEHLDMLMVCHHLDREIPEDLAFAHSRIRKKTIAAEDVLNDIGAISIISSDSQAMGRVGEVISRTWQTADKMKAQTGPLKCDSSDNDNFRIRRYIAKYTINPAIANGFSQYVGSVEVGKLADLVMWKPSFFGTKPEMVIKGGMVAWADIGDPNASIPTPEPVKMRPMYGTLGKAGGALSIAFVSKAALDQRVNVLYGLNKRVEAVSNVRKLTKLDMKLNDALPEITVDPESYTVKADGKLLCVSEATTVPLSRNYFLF

Active and inactive are the calls of the source. The calls are words filed in the database; no cut-off is given here.

The IC50 is the concentration that inhibits the measured activity by half. Usually Ki stands for a measure of affinity in units of concentration, obtained from inhibition or displacement.

Chain of Urease (P07374 whole entry): as the sequence (P07374 whole entry, looked up) above

As for `COc1cc(/C=N/NC(N)=S)cc(OC)c1OC`, at Urease, the IC50 amounted to 989 nM and the Ki was found to be 910 nM.
Regarding `N/C(S)=N/N=C/c1cccc([N+](=O)[O-])c1`, the inhibition result in test [1] was “Active”. At Urease, the IC50 stood at 102 nM and the inhibitory constant (Ki) is 90 nM.
Regarding `COc1ccc(/C=N/NC(N)=S)cc1OCc1ccccc1`, on Urease, the IC50 amounted to 330 nM and the Ki was found to be 191 nM.
The like results for `N/C(S)=N/N=C/c1ccc([N+](=O)[O-])cc1` were, in that order, 547 nM and 497 nM.
With `NC(=S)N/N=C/c1ccccc1OCc1ccccc1`, on Urease, the IC50 came to 263 nM and the Ki is 152 nM.
Regarding `CN(C)c1ccc(/C=N/NC(N)=S)cc1`, at Urease, the IC50 was 127 nM and the Ki was 122 nM.
Take `COc1ccc(/C=N/NC(N)=S)cc1`: on Urease, the IC50 was 887 nM and the inhibition constant (Ki) is 807 nM.
On to `NC(=S)N/N=C/c1ccc(Cl)cc1`, for which, on Urease, the 50% inhibitory concentration (IC50) turned out to be 410 nM and the Ki came out at 398 nM.
Regarding `N/C(S)=N/N=C/c1cccc(Br)c1`, on Urease, the IC50 amounted to 767 nM and the Ki stood at 670 nM.
Turning to `NC(N)=S` [THIOUREA], the Ki at Urease stood at 19600 nM.
`NC(=S)N/N=C/c1cccc(Cl)c1`: at Urease, the half-maximal inhibitory concentration (IC50) came out at 670 nM and the inhibition constant Ki is 625 nM.
The like results for `C/C=C/C=N/NC(N)=S` were, in that order, 746 nM and 430 nM.
Turning to `NC(=S)N/N=C/c1ccc(Br)cc1`, at Urease, the IC50 was 707 nM and the inhibitory constant (Ki) worked out at 770 nM.
As for `NC(=S)N/N=C/c1cccc(O)c1O`, at Urease, the IC50 was 220 nM and the Ki worked out at 127 nM.
In the same order, the values of `NC(=S)N/N=C/C=C/c1ccccc1` are 457 nM and 407 nM.
Turning to `COc1cccc(/C=N/NC(N)=S)c1`, at Urease, the IC50 stood at 177 nM and the Ki stood at 127 nM.
Regarding `NC(=S)N/N=C/c1ccc(O)cc1`, at Urease, the IC50 was determined as 682 nM and the inhibition constant Ki stood at 391 nM.
In the same order, the values of `COc1cc(/C=N/NC(N)=S)cc(OC)c1O` are 233 nM and 134 nM.
The like results for `NC(=S)N/N=C/c1ccccc1Cl` were, in that order, 215 nM and 170 nM.
